Data on 10 molecules can be found in US8268818B2, “Inhibitors of C-MET and uses thereof” (Vertex Pharmaceuticals Incorporated, priority 2006, dated 2012).

As a reminder, the Ki is a dissociation constant, usually derived from enzyme kinetics or from competition with a known ligand.

For one assay, the target named is T1, PI3Kγ (Homo sapiens, UniProt P48736). Put plainly: PI3K inhibition assay, Protocol A (33P incorporation, hydrophobic membrane filter plate). It counts as biochemical. To be noted: 40 μM ATP, 65 μM PI(4,5)P2 diC8, 75 nM PI3Kγ, average if more than one result, read-out: PI3Kγ enzyme inhibition Ki. The method, then: Compounds were screened for their ability to inhibit PI3Kγ using one of the assays below. To each well of a 96 well polystyrene plate [Corning, Costar Item No. 3696], was added 1.5 μl of a compound of the invention (at various concentrations) along with 28.5 W of kinase buffer [50 mM HEPES (pH 7.4), 5 mM DTT, 5 mM MgCl2 and 50 mM NaCl] containing 137 μM phosphatidylinositol(4,5) bisphosphate diC8 [PI(4,5)P2; Echelon Biosciences, Cat. No. P-4508] and 158 nM PI3Ky. After mixing, 30 μl of kinase buffer containing 80 μM ATP was added to start the reaction. Final substrate concentrations in the assay were 50 mM HEPES (pH 7.4), 5 mM DTT, 5 mM MgCl2, 50 mM NaCl, 40 μM ATP (200 μCi/μmole ATP), 65 μM PI(4,5)P2 and 75 nM PI3Kγ. After 20 minutes at room temperature (25° C.), the reaction was stopped with 30 μl of kinase buffer containing 150 mM EDTA and 1.5 M ammonium sulfate. Each well of a 96 well hydrophobic membrane filter plate [Millipore, 0.45 μm hydrophobic membrane, Cat. No. […]] was washed with 100 μL wash buffer [50 mM HEPES (pH 7.4), 5 mM DTT, 5 mM MgCl2, 50 mM NaCl, 5 mM EDTA and 0.5 M ammonium sulfate]. 60 μL of the stopped assay was transferred to each well of the filter plate and soaked for 30 minutes. […] The filter plate was allowed to stand overnight prior to determining ^33P incorporation on a Perkin-Elmer Microbeta TriluxTM liquid scintillation counter and luminescence counter. […]
T1 sequence (P48736 whole entry, species assumed): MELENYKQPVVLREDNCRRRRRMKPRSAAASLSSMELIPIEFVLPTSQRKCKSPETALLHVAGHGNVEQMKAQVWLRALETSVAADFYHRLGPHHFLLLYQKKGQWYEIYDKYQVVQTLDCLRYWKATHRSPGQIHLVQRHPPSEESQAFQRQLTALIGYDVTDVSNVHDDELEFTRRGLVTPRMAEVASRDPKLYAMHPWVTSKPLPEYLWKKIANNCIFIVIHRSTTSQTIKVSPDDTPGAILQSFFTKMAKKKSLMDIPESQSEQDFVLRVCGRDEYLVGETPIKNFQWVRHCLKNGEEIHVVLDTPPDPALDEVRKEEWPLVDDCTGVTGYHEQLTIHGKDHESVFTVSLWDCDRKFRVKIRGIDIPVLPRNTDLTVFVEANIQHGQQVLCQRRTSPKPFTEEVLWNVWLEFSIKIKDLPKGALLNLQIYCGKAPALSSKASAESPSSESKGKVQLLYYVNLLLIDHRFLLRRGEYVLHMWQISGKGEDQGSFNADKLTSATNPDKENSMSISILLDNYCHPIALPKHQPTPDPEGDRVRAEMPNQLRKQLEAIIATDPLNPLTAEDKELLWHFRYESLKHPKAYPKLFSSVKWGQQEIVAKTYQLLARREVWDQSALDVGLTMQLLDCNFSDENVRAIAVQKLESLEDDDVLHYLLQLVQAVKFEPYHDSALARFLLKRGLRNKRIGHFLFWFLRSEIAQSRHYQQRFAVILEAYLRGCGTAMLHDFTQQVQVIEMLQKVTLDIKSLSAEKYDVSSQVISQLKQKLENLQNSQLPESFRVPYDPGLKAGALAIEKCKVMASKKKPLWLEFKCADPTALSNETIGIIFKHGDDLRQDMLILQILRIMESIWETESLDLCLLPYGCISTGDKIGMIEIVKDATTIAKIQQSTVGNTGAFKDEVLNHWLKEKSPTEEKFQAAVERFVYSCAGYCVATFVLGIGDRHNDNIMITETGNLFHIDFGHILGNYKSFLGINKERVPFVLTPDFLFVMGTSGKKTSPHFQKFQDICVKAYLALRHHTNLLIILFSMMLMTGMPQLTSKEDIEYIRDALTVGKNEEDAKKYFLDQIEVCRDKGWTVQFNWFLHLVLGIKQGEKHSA
`CCOC(=O)c1ccc(-c2sc(NC(=O)C3CC3)nc2C)o1` [Compound 1, Ethyl 5-(2-(cyclopropanecarboxamido)-4-methylthiazol-5-yl)furan-2-carboxylate]: the inhibitory constant (Ki) was in the range of 1 to 5 µM.

A further assay has as its target T1, PI3Kγ. In words: PI3K inhibition assay, Protocol B (33P-ATP, glass fiber filter plate). It counts as biochemical. Particulars: Protocol B; 100 μM ATP, 46 μM PI(4,5)P2 diC16, 16.6 nM PI3Kγ; average if more than one result; read-out: PI3Kγ enzyme inhibition Ki. The method, then:
Compounds were screened for their ability to inhibit PI3Kγ using one of the assays below.
To each well of a 96 well polystyrene plate [Corning Costar Item No. 3795], 61 μL of Reaction Mix [55 mM HEPES pH 7.5, 11 mM MgCl2, 27 mM NaCl, 5.5 mM DTT, 0.11 mg/mL BSA, 51 μM phosphatidylinositol(4,5)bisphosphate diC16 (PI(4,5)P2; Avanti Polar Lipids, Cat. No. 840046P) and 18 nM PI3Kγ] was added. Separately, ten 2.5-fold serial dilutions of compounds of the invention were prepared in 100% DMSO with the last two wells reserved for no inhibitor controls (enzyme+no compound and no enzyme control+no compound). 1 μL it of compound or DMSO alone was added by 12-channel hand pipet and incubated for 10 minutes at room temperature (25° C.). To initiate the reaction, 5 μl of ATP Mix [49 mM HEPES pH 7.5 and 1340 ^33P-ATP was added and allowed to incubate for 30 min. at 25° C. Final concentrations of the reaction were 50 mM HEPES 7.5, 10 mM MgCl2, 25 mM NaCl, 5 mM DTT, 0.1 mg/mL BSA, 46 μM PI(4,5)P2, 16.6 nM PI3Kγ, and 100 μM ATP. Final inhibitor concentrations ranged from 10 μM to 1 nM.
After incubation, 60 μL of the reaction was quenched by transferring to 504 of 20% TCA/Water in each well of a 96 well glass fiber filter plate [Millipore Cat. No. MAFBN0B50]. The plate was dried by vacuum and then washed five times in a Bio-Tek Instruments ELX-405 Auto Plate Washer with 150 μL of 5% TCA/Water. 50 μL of scintillation fluid was added to each well and the plate was read immediately on a Perkin-Elmer TopCount™ NXT liquid scintillation counter.
Inhibition data was background subtracted (no enzyme control+no inhibitor control) and fit to the competitive tight binding Ki equation described by Morrison and Stone. [J. F. Morrison and S. R. Stone, Comments Mol. Cell. Biophys. 2 (1985) 347-368].
On to `CC[C@@H](NS(=O)(=O)c1ccc(-c2sc(NC(C)=O)nc2C)o1)c1ccccc1` [Compound 66], for which the Ki was below 0.1 µM.

Consider `CC(=O)Nc1nc(C)c(-c2ccc(S(=O)(=O)NCc3ccccc3C)o2)s1` [Compound 67], for which the inhibition constant (Ki) was below 0.1 µM.

In the case of `CC(=O)Nc1nc(C)c(-c2ccc(S(=O)(=O)NCC(F)(F)F)o2)s1` [Compound 68], the Ki is below 0.1 µM.

As for `CC(=O)Nc1nc(C)c(-c2ccc(S(=O)(=O)Nc3ccccc3F)o2)s1` [Compound 69], the Ki is below 0.1 µM.

Consider `CC(=O)Nc1nc(C)c(-c2ccc(S(=O)(=O)Nc3c(F)cccc3F)o2)s1` [Compound 70], for which the Ki lay within 0.1 to 1 µM.

As for `COC(=O)c1nc(NC(C)=O)sc1-c1ccc(S(=O)(=O)N(C)Cc2ccccc2)o1` [Compound 71], the inhibition constant (Ki) lay in the range of 1 to 5 µM.

As for `COC(=O)c1nc(NC(C)=O)sc1-c1ccc(S(=O)(=O)NCc2ccccc2)o1` [Compound 72], the inhibitory constant (Ki) fell in the range of 0.1 to 1 µM.

Take `CC(=O)Nc1nc(C)c(-c2ccc(S(=O)(=O)N[C@@H]3c4ccccc4C[C@@H]3O)o2)s1` [Compound 73]: the Ki is below 0.1 µM.

Consider `CC(=O)Nc1nc(C)c(-c2ccc(S(=O)(=O)N[C@H]3c4ccccc4C[C@H]3O)o2)s1` [Compound 74], for which the Ki was below 0.1 µM.
